Measured values from patent publication US6011046A, “Quinone compound, its production and use as antioxidant” (Takeda Chemical Industries, Ltd., priority 1995, dated 2000).

Columns and labels:
[1] = test system: lipoperoxide formed in the brain homogenate; experiment: Lipoperoxide formation inhibitory effect (thiobarbituric acid (TBA) method, brain homogenate); type: biochemical, Wistar male rats; details: rat cerebral cortex homogenate supernatant, 37° C., 30 minutes, pH 7.4, malondialdehyde at 532 nm
Method: The lipoperoxide formed in the brain homogenate was quantified by the thiobarbituric acid (TBA) method of Stocks et al. (Cli. Sci. Mol. Med. 47, 215 (1974)). The cerebral cortex was removed from Wistar male rats (10 weeks old), and homogenized in ice-cooled phosphate physiological saline buffer (40 mM KH2 PO4 /K2 HPO4, 0.142M NaCl, pH 7.4). The homogenate was centrifuged at 1,000×g for 10 minutes, and the supernatant of the homogenate was used for the experiment. A solution of the test compound in ethanol (10 μl) was added to the supernatant (1 ml), and the mixture was incubated at 37° C. for 30 minutes. The reaction was stopped by adding 35% perchloric acid solution (200 μl). The reaction mixture was centrifuged at 13,000× g for 10 minutes, and 1% thiobarbituric acid solution (250 μl) was added to the supernatant (1.0 ml). The mixture was heated at 100° C. for 15 minutes, and then the amount of malondialdehyde formed by decomposition of the lipoperoxide was determined by colorimetry (532 nm).

[2] = test system: Na+ channel site 1; type: binding, SD male rats; details: [3H]-saxitoxin 2 nM, rat forebrain homogenate, 37° C., 30 minutes
[3] = test system: Na+ channel site 2; parameters: species or system SD male rats; details: [3H]-batrachotoxin 2 nM, rat forebrain homogenate, 37° C., 45 minutes; read-out: IC50 (Na+ channel binding, site 2)

Compound	IC50 [1]	effect on site 1 of Na channels [2]	IC50 [3]
vitamin E [reference compound]	203 ± 43 µM		
CC1=C(C)C(=O)C(C[C@](C)(O)CN2CCC(c3ccccc3)CC2)=C(C)C1=O [compound (A), (S)-2-[2-Hydroxy-2-methyl-3-(4-phenylpiperidin-1-yl)propyl]-3,5,6-trimethyl-1,4-benzoquinone]	3.5 ± 0.56 µM	no effect	0.9 µM
